{"source": "BindingDB's records for PubMed 8450829", "about": "(Cnrs, 1993)"}
{"biological_target": "5-hydroxytryptamine receptor 5B (Mus musculus, UniProt P31387)", "sequence (P31387 whole entry)": "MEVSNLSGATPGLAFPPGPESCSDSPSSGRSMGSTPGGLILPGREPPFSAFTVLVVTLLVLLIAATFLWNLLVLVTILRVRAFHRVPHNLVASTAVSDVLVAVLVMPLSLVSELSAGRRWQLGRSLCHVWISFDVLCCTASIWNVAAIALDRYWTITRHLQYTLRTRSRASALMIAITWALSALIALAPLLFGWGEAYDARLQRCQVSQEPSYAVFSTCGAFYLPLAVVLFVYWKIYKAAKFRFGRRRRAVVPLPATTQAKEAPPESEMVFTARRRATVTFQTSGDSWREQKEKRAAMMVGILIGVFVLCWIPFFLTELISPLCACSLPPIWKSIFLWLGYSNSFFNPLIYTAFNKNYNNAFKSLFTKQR", "units": {"Ki": "nM"}}
{"smiles": "CCCN(CCC)C1CCc2cccc(O)c2C1", "note": "(stereo not drawn)", "Ki": 398}
{"smiles": "CC[C@@H](CO)NC(=O)[C@@H]1C=C2c3cccc4c3c(cn4C)C[C@H]2N(C)C1", "Ki": 126}
{"smiles": "NCCc1ccc(O)c(O)c1", "Ki": "> 10000"}
{"smiles": "O=C(c1ccc(F)cc1)C1CCN(CCn2c(=O)[nH]c3ccccc3c2=O)CC1", "note": "[3-(2-{4-[(4-fluorophenyl)carbonyl]piperidin-1-yl}ethyl)-1,2,3,4-tetrahydroquinazoline-2,4-dione]", "Ki": 1580}
{"smiles": "CN(C)CCc1c[nH]c2ccc(O)cc12", "note": "[3-[2-(dimethylamino)ethyl]indol-5-ol]", "Ki": 1580}
{"smiles": "COc1ccc2[nH]cc(C3=CCNCC3)c2c1", "note": "[5-Methoxy-3-(1,2,3,6-tetrahydro-pyridin-4-yl)-1H-indole(RU-24969)]", "Ki": 398}
{"smiles": "CN1C[C@H](C(=O)N[C@]2(C)O[C@@]3(O)[C@@H]4CCCN4C(=O)[C@H](Cc4ccccc4)N3C2=O)C=C2c3cccc4[nH]cc(c34)C[C@H]21", "note": "[12'-hydroxy-2'-methyl-5'alpha-(phenylmethyl)ergotaman-3',6',18-trione]", "Ki": 3.16}
{"smiles": "NCC(O)c1ccc(O)c(O)c1", "note": "(stereo not drawn) [Noradrenaline,(+)]", "Ki": "> 10000"}
{"smiles": "CNS(=O)(=O)Cc1ccc2[nH]cc(CCN(C)C)c2c1", "note": "[Sumax]", "Ki": 7940}
{"smiles": "FC(F)(F)c1cccc(N2CCNCC2)c1", "note": "[TFMPP]", "Ki": 3980}
{"smiles": "NCCc1c[nH]c2ccc(O)cc12", "note": "[[3H]-5-HT]", "Ki": 251}
{"smiles": "NCCc1c[nH]c2ccc(C(N)=O)cc12", "note": "[[3H]-5-carboxamidotryptamine]", "Ki": 39.8}
{"smiles": "CSc1ccc2c(c1)C(N1CCN(C)CC1)Cc1ccccc1S2", "note": "(stereo not drawn) [methanesulfonic acid;1-methyl-4-(3-methylsulfanyl-5,6-dihydrobenzo[b][1]benzothiepin-5-yl)piperazine]", "Ki": 15.8}
